Values after ≈ are worked out from the molar mass of the structure shown. Where a SMILES comes first, the peptide text is derived from it. Bridges are numbered along the chain shown (N, C = ends). [ ]: non-standard residue; d: D form. Lys(N3) = [N-]=[N+]=NCCCC[C@H](N)C(=O)O; R8 = C=CCCCCCC[C@@](C)(N)C(=O)O; Cba = N[C@@H](CC1CCC1)C(=O)O; S5 = C=CCCC[C@](C)(N)C(=O)O; βAla = NCCC(=O)O
Tests used:
[1] = target: T1, MDM2 (1-125; SEQ ID NO 14) (Homo sapiens, UniProt Q00987); test: MDM2 binding assay (fluorescence anisotropy competition, FP)
T1 construct: GST (N); His6 (internal); TEV cleavage site ENLYFQG (internal); made in house; host or cells: E. coli BL21 (DE3) Rosetta T1R
Procedure: [P] is the protein concentration (MDM2), [L] is the labeled peptide concentration, r is the anisotropy measured, r0 is the anisotropy of the free peptide, rb is the anisotropy of the MDM2-FAM-labeled peptide complex, Kd is the dissociation constant, [L]t is the total FAM labeled peptide concentration, and [P]t is the total MDM2 concentration. […] The competing molecules were then titrated against the complex of the FAM-labeled peptide and protein. Apparent Kd values were determined by fitting the experimental data to the equations shown below:
[L]st and [L]t denote labeled ligand and total unlabeled ligand input concentrations, respectively. Kd2 is the dissociation constant of the interaction between the unlabeled ligand and the protein. In all competition experiments, it is assumed that [P]t>[L]st, otherwise considerable amounts of free labeled ligand would always be present and would interfere with measurements. […] The FAM-labeled peptide was dissolved in dimethyl sulfoxide (DMSO) at 1 mM and diluted into experimental buffer. Readings were carried out with an Envision Multilabel Reader (PerkinElmer). […] All titrations were carried out in triplicate. Curve-fitting was carried out using Prism 4.0 (GraphPad). […] Negative control titrations of the ligands under investigation were also carried out with the fluorescently labeled peptide (in the absence of MDM2) to ensure no interactions were occurring between the ligands and the FAM-labeled peptide.

[2] = system: HCT116 cells; test: Lactate dehydrogenase release assay (LDH); type: cell-based
Procedure: HCT116 cells were seeded into a 384-well plate at a density of 8000 cells per well. Cells were maintained in McCoy's 5A Medium with 10% fetal bovine serum (FBS), Blasticidin and Penicillin/Streptomycin. The cells were incubated overnight followed by the removal of cell media and the addition of Opti-MEM Medium without FBS. Cells were then treated with peptides for 4/16 hours in Opti-MEM either in 10% FBS or serum free. Final concentration of DMSO was 0.5%. Lactate dehydrogenase release was detected using CytoTox-ONE Homogenous Membrane Integrity Assay Kit (Promega) as per manufacturer's instructions. Measurements were carried out using Tecan plate reader. Maximum LDH release was defined as the amount of LDH released induced by the lytic peptide (iDNA79) and used to normalize the results.

[3] = system: Jump-In T-REx CHO-K1 BLA cells; test: Tetracycline beta-lactamase reporter gene assay (counter screen); type: cell-based
Procedure: Based on Jump-In™ T-REx™ CHO-K1 BLA cells and contain a stably integrated β-lactamase under the control of an inducible CMV promoter. Cells were seeded into a 384-well plate a density of 4000 cells per well. Cells were maintained in Dulbecco's Minimal Eagle Medium (DMEM) with 10% fetal bovine serum (FBS), Blasticidin and Penicillin/Streptomycin. The cells were incubated for 24 hours, followed by cell media removal and replacement with Opti-MEM either containing 10% FBS or 0% FBS. Peptides were then dispensed to each well using a liquid handler, ECHO 555 and incubated for 4/16 hours. Final working concentration of DMSO was 0.5%. β-Lactamase activity was detected using the ToxBLAzer Dual Screen (Invitrogen) as per manufacturer's instructions. Measurements were carried out using Envision multiplate reader (Perkin Elmer). Counter Screen activity was defined as the amount of 0-lactamase activity induced by tetracycline.

[4] = Circular dichroism (CD) helicity; type: physicochemical
Procedure: The dried peptide was reconstituted in a buffer containing 1 mM HEPES pH 7.4 and 5% methanol to a concentration of 1 mM. The peptide sample was placed in a quartz cuvette with a path length of 0.2 cm and a CD spectrum was recorded from 300 to 190 nm at 25° C. using the Chirascan-plus qCD machine (Applied Photophysics). The actual concentration of the peptide was determined by the absorbance of the peptide at […]. An estimate of the secondary structure components of the peptide was carried out by converting the CD spectrum to mean residue ellipticity before deconvoluting using the CDNN software (distributed by Applied Photophysics). All experiments were done in duplicate.

[5] = system: HCT116
[6] = system: p53 null Ca Ski; conditions: 72 h, 10% serum
[7] = HPLC LogD
[8] = Solubility (PBS, pH 7); conditions: PBS, pH 7

T1 sequence (Q00987 with tags, fused parts or gaps): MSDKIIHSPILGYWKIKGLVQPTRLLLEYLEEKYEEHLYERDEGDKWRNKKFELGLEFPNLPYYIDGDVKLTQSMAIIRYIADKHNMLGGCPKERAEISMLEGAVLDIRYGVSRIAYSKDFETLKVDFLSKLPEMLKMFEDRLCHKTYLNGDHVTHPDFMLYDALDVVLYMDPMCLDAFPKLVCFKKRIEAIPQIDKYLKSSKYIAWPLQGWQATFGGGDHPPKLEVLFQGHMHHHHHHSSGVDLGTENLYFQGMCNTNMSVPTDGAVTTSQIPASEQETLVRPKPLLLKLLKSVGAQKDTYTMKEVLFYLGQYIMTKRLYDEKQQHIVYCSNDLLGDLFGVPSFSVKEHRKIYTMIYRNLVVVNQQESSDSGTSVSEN

## CC(=O)N[C@@H](CCCCN=[N+]=[N-])C(=O)NCCC(=O)N[C@@H](CC(C)C)C(=O)N[C@H](C(=O)N[C@@H](Cc1ccccc1)C(=O)N[C@]1(C)CCCCCCC=CCCC[C@@](C)(C(=O)N[C@@H](C)C(=O)N[C@@H](C)C(=O)N[C@@H](C)C(=O)N[C@@H](C)C(=O)N[C@@H](C)C(=O)N[C@H](C)C(N)=O)NC(=O)[C@H](CC2CCC2)NC(=O)[C@H](CCC(N)=O)NC(=O)[C@H](C)NC(=O)[C@H](Cc2c[nH]c3ccccc23)NC(=O)[C@H](Cc2ccc(O)cc2)NC(=O)[C@H](CCC(=O)O)NC1=O)[C@@H](C)O [Macrocycle 3, Ac-K(N3)-betaAla-L-T-F-X1a-E-Y-W-A-Q-Cba-X2a-AAAAA-(D-Ala)-NH2(olefinstaple from X1ato X2a)] (Ac-[Lys(N3)][βAla]LTF[R8]EYWAQ[Cba][S5]AAAAA[dA]-NH2; staple 6-13)
[1]
  Kd: 31 nM
[2]; 0% FBS, 4 h
  EC50: > 50 µM
[2]; 10% FBS, 16 h
  EC50: > 50 µM
[3]; 0% FBS, 4 h
  EC50: > 50 µM
[3]; 10% FBS, 16 h
  EC50: > 50 µM
[4]
  CD (% helicity): 47%
[5]; 72 h, 10% serum
  HCT116 proliferation % Max: 71%
[5]; read-out: cellular efficacy in cell proliferation HTC116 p53 positive control cell lines
  EC50: 420 nM
[6]
  p53 null Ca Ski proliferation % Max: 10%
[7]
  logD: 3.15
[8]
  solubility: 157 µM (≈ 340 µg/mL)

Source: patent publication US20250034211A1, “C-TERMINAL EXTENDED P53 ACTIVATOR CROSSLINKED PEPTIDOMIMETIC MACROCYCLES AGAINST MDM2/MDMX” (Merck Sharp & Dohme LLC, priority 2021, published 2025)
